Reference: US20230250129A1, “NEUROACTIVE STEROIDS AND COMPOSITIONS THEREOF” (Sage Therapeutics, Inc., priority 2020, published 2023)

Biological target: [35S]-TBPS binding, rat brain cortical membranes (GABAA receptor)
Assay: Steroid inhibition of [35S]-TBPS binding
Conditions: 3 nM [35S]-TBPS, in the presence of 5 mM GABA, 90 min at room temp
Procedure: Steroid Inhibition of TBPS Binding
[^35S]-t-Butylbicyclophosphorothionate (TBPS) binding assays using rat brain cortical membranes in the presence of 5 mM GABA has been described (Gee et al, J. Pharmacol. Exp. Ther. 1987, 241, 346-353; Hawkinson et al, Mol. Pharmacol. 1994, 46, 977-985; Lewin, A. H et al., Mol. Pharmacol. 1989, 35, 189-194).
Briefly, cortices are rapidly removed following decapitation of carbon dioxide-anesthetized Sprague-Dawley rats (200-250 g). The cortices are homogenized in 10 volumes of ice-cold 0.32 M sucrose using a glass/teflon homogenizer and centrifuged at 1500×g for 10 min at 4° C. The resultant supernatants are centrifuged at 10,000×g for 20 min at 4° C. to obtain the P2 pellets. The P2 pellets are resuspended in 200 mM NaCl/50 mM Na—K phosphate pH 7.4 buffer and centrifuged at 10,000×g for 10 min at 4° C. This washing procedure is repeated twice and the pellets are resuspended in 10 volumes of buffer. Aliquots ([…]) of the membrane suspensions are incubated with 3 nM [^35S]-TBPS and […] aliquots of test drug dissolved in dimethyl sulfoxide (DMSO) (final 0.5%) in the presence of 5 mM GABA. The incubation is brought to a final volume of 1.0 mL with buffer. Nonspecific binding is determined in the presence of […] and ranged from 15 to 25%. Following a 90 min incubation at room temp, the assays are terminated by filtration through glass fiber filters (Schleicher and Schuell No. 32) using a cell harvester (Brandel) and rinsed three times with ice-cold buffer. Filter bound radioactivity is measured by liquid scintillation spectrometry. Non-linear curve fitting of the overall data for each drug averaged for each concentration is done using Prism (GraphPad). […] The concentration of test compound producing 50% inhibition (IC50) of specific binding and the maximal extent of inhibition (Imax) are determined for the individual experiments with the same model used for the overall data and then the means±SEM.s of the individual experiments are calculated.
Various compounds are or can be screened to determine their potential as modulators of [^35S]-TBPS binding in vitro. These assays are or can be performed in accordance with the above

Structure (SMILES) | IC50 [nM]
CCC[C@@]1(O)CC[C@H]2[C@H](CC[C@@H]3[C@@H]2CC[C@]2(C)[C@@H](C(=O)Nc4cnc(C#N)cn4)CC[C@@H]32)C1 [Compound 69, (3R,5R,8R,9R,10S,13S,14S,17S)—N-(5-cyanopyrazin-2-yl)-3-hydroxy-13-methyl-3-propylhexadecahydro-1H-cyclopenta[a]phenanthrene-17-carboxamide] | < 100
COC[C@@]1(O)CC[C@@]2(C)[C@H](CC[C@@H]3[C@@H]2CC[C@]2(C)[C@@H](C(=O)Nc4ccc(C#N)cn4)CC[C@@H]32)C1 [Compound 70, (3R,5R,8R,9S,10S,13S,14S,17S)—N-(5-cyanopyridin-2-yl)-3-hydroxy-3-(methoxymethyl)-10,13-dimethylhexadecahydro-1H-cyclopenta[a]phenanthrene-17-carboxamide] | < 100
COC[C@@]1(O)CC[C@H]2[C@H](CC[C@@H]3[C@@H]2CC[C@]2(C)[C@@H](C(=O)Nc4ccc(C#N)cn4)CC[C@@H]32)C1 [Compound 71, (3R,5R,8R,9R,10S,13S,14S,17S)—N-(5-cyanopyridin-2-yl)-3-hydroxy-3-(methoxymethyl)-13-methylhexadecahydro-1H-cyclopenta[a]phenanthrene-17-carboxamide] | < 100
COC[C@@]1(O)CC[C@@]2(C)[C@H](CC[C@@H]3[C@@H]2CC[C@]2(C)[C@@H](C(=O)Nc4cnc(C#N)cn4)CC[C@@H]32)C1 [Compound 72, (3R,5R,8R,9S,10S,13S,14S,17S)—N-(5-cyanopyrazin-2-yl)-3-hydroxy-3-(methoxymethyl)-10,13-dimethylhexadecahydro-1H-cyclopenta[a]phenanthrene-17-carboxamide] | < 100
COC[C@@]1(O)CC[C@H]2[C@H](CC[C@@H]3[C@@H]2CC[C@]2(C)[C@@H](C(=O)Nc4cnc(C#N)cn4)CC[C@@H]32)C1 [Compound 73, (3R,5R,8R,9R,10S,13S,14S,17S)—N-(5-cyanopyrazin-2-yl)-3-hydroxy-3-(methoxymethyl)-13-methylhexadecahydro-1H-cyclopenta[a]phenanthrene-17-carboxamide] | < 100
CCC[C@@]1(O)CC[C@@]2(C)[C@H](CC[C@@H]3[C@@H]2CC[C@]2(C)[C@@H](C(=O)Nc4cnc(C#N)cn4)CC[C@@H]32)C1 [Compound 74, (3R,5R,8R,9S,10S,13S,14S,17S)—N-(5-cyanopyrazin-2-yl)-3-hydroxy-10,13-dimethyl-3-propylhexadecahydro-1H-cyclopenta[a]phenanthrene-17-carboxamide] | < 100
CCOC[C@@]1(O)CC[C@@]2(C)[C@H](CC[C@@H]3[C@@H]2CC[C@]2(C)[C@@H](C(=O)Nc4cnc(C#N)cn4)CC[C@@H]32)C1 [Compound 75, (3R,5R,8R,9S,10S,13S,14S,17S)—N-(5-cyanopyrazin-2-yl)-3-(ethoxymethyl)-3-hydroxy-10,13-dimethylhexadecahydro-1H-cyclopenta[a]phenanthrene-17-carboxamide] | < 100
CCOC[C@@]1(O)CC[C@H]2[C@H](CC[C@@H]3[C@@H]2CC[C@]2(C)[C@@H](C(=O)Nc4cnc(C#N)nc4)CC[C@@H]32)C1 [Compound 76, (3R,5R,8R,9R,10S,13S,14S,17S)—N-(2-cyanopyrimidin-5-yl)-3-(ethoxymethyl)-3-hydroxy-13-methylhexadecahydro-1H-cyclopenta[a]phenanthrene-17-carboxamide] | < 100
CCOC[C@@]1(O)CC[C@H]2[C@H](CC[C@@H]3[C@@H]2CC[C@]2(C)[C@@H](C(=O)Nc4cc(C#N)ncn4)CC[C@@H]32)C1 [Compound 77, (3R,5R,8R,9R,10S,13S,14S,17S)—N-(6-cyanopyrimidin-4-yl)-3-(ethoxymethyl)-3-hydroxy-13-methylhexadecahydro-1H-cyclopenta[a]phenanthrene-17-carboxamide] | < 100
CCOC[C@@]1(O)CC[C@H]2[C@H](CC[C@@H]3[C@@H]2CC[C@]2(C)[C@@H](C(=O)Nc4ccnc(C#N)n4)CC[C@@H]32)C1 [Compound 78, (3R,5R,8R,9R,10S,13S,14S,17S)—N-(2-cyanopyrimidin-4-yl)-3-(ethoxymethyl)-3-hydroxy-13-methylhexadecahydro-1H-cyclopenta[a]phenanthrene-17-carboxamide] | < 100
CCOC[C@@]1(O)CC[C@H]2[C@H](CC[C@@H]3[C@@H]2CC[C@]2(C)[C@@H](C(=O)Nc4nccc(C#N)n4)CC[C@@H]32)C1 [Compound 79, (3R,5R,8R,9R,10S,13S,14S,17S)—N-(4-cyanopyrimidin-2-yl)-3-(ethoxymethyl)-3-hydroxy-13-methylhexadecahydro-1H-cyclopenta[a]phenanthrene-17-carboxamide] | 100 to 1000
CCC[C@@]1(O)CC[C@H]2[C@H](CC[C@@H]3[C@@H]2CC[C@]2(C)[C@@H](C(=O)Nc4ccc(F)cn4)CC[C@@H]32)C1 [Compound 81, (3R,5R,8R,9R,10S,13S,14S,17S)—N-(5-fluoropyridin-2-yl)-3-hydroxy-13-methyl-3-propylhexadecahydro-1H-cyclopenta[a]phenanthrene-17-carboxamide] | < 100
CCOC[C@@]1(O)CC[C@H]2[C@H](CC[C@@H]3[C@@H]2CC[C@]2(C)[C@@H](C(=O)Nc4ncc(C#N)cn4)CC[C@@H]32)C1 [Compound 82, (3R,5R,8R,9R,10S,13S,14S,17S)—N-(5-cyanopyrimidin-2-yl)-3-(ethoxymethyl)-3-hydroxy-13-methylhexadecahydro-1H-cyclopenta[a]phenanthrene-17-carboxamide] | 100 to 1000
CCC[C@@]1(O)CC[C@H]2[C@H](CC[C@@H]3[C@@H]2CC[C@]2(C)[C@@H](C(=O)Nc4cncc(C#N)n4)CC[C@@H]32)C1 [Compound 83, (3R,5R,8R,9R,10S,13S,14S,17S)—N-(6-cyanopyrazin-2-yl)-3-hydroxy-13-methyl-3-propylhexadecahydro-1H-cyclopenta[a]phenanthrene-17-carboxamide] | < 100
CCC[C@@]1(O)CC[C@H]2[C@H](CC[C@@H]3[C@@H]2CC[C@]2(C)[C@@H](C(=O)Nc4cc(C#N)ncn4)CC[C@@H]32)C1 [Compound 84, (3R,5R,8R,9R,10S,13S,14S,17S)—N-(6-cyanopyrimidin-4-yl)-3-hydroxy-13-methyl-3-propylhexadecahydro-1H-cyclopenta[a]phenanthrene-17-carboxamide] | < 100
C[C@H]1C[C@H]2[C@H](CC[C@@H]3[C@@H]2CC[C@]2(C)[C@@H](C(=O)Nc4ccc(C#N)nc4)CC[C@@H]32)C[C@]1(C)O [Compound 85, (2S,3S,5R,8R,9R,10S,13S,14S,17S)—N-(6-cyanopyridin-3-yl)-3-hydroxy-2,3,13-trimethylhexadecahydro-1H-cyclopenta[a]phenanthrene-17-carboxamide] | < 100
CCC[C@@]1(O)CC[C@H]2[C@H](CC[C@@H]3[C@@H]2CC[C@]2(C)[C@@H](C(=O)Nc4cnc(C#N)nc4)CC[C@@H]32)C1 [Compound 86, (3R,5R,8R,9R,10S,13S,14S,17S)—N-(2-cyanopyrimidin-5-yl)-3-hydroxy-13-methyl-3-propylhexadecahydro-1H-cyclopenta[a]phenanthrene-17-carboxamide] | 100 to 1000
CCC[C@@]1(O)CC[C@H]2[C@H](CC[C@@H]3[C@@H]2CC[C@]2(C)[C@@H](C(=O)Nc4ccnc(C#N)n4)CC[C@@H]32)C1 [Compound 87, (3R,5R,8R,9R,10S,13S,14S,17S)—N-(2-cyanopyrimidin-4-yl)-3-hydroxy-13-methyl-3-propylhexadecahydro-1H-cyclopenta[a]phenanthrene-17-carboxamide] | < 100
C[C@H]1C[C@H]2[C@H](CC[C@@H]3[C@@H]2CC[C@]2(C)[C@@H](C(=O)Nc4cnc(C#N)cn4)CC[C@@H]32)C[C@]1(C)O [Compound 88, (2S,3S,5R,8R,9R,10S,13S,14S,17S)—N-(5-cyanopyrazin-2-yl)-3-hydroxy-2,3,13-trimethylhexadecahydro-1H-cyclopenta[a]phenanthrene-17-carboxamide] | < 100
COC[C@@]1(O)CC[C@H]2[C@H](CC[C@@H]3[C@@H]2CC[C@]2(C)[C@@H](C(=O)Nc4cnc(C#N)nc4)CC[C@@H]32)C1 [Compound 89, (3R,5R,8R,9R,10S,13S,14S,17S)—N-(2-cyanopyrimidin-5-yl)-3-hydroxy-3-(methoxymethyl)-13-methylhexadecahydro-1H-cyclopenta[a]phenanthrene-17-carboxamide] | < 100
